{"source": "patent US12497365B2", "about": "“4-pyridinyl formamide compound or derivative thereof, preparation method therefor, herbicidal composition and use thereof” (Qingdao Kingagroot Chemical Compound Co., Ltd., priority 2019, dated 2025)", "assay_in_all_cases": "Weeding effect in post-emergence stage", "assay_type_in_all_cases": "in vivo", "settings_in_all_cases": "active ingredient 2000 g/ha, 3 weeks after application, fresh weight control rate", "key": {"Abutilon theophrasti": {"system": "Abutilon theophrasti", "method_in_brief": "(§1)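 Pot-grown weeds at the 2-3 leaf stage receive a tower spray of test compound at 2000, 1000, 500, 250 or 125 g/ha, formulated in acetone with Tween 80 and methyl oleate synergist. Fresh weight reduction is rated on an activity scale 3 weeks later.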"}, "Chenopodium album": {"system": "Chenopodium album", "method_in_brief": "as §1"}, "Descurainia sophia": {"system": "Descurainia sophia", "method_in_brief": "as §1"}, "[1]": {"system": "Amaranthus retroflexus L.", "method_in_brief": "as §1"}}}
{"smiles": "Cn1nnnc1NC(=O)c1ccnc(-c2ccc(C=O)s2)c1Cl", "note": "[Compound 1-190]", "values": [{"measurement": "Weeding effect, activity level (growth control rate), Abutilon theophrasti", "setting": "Abutilon theophrasti", "result": "5 (Level 5: growth control rate is above 85%)"}, {"measurement": "Weeding effect, activity level (growth control rate), Chenopodium album", "setting": "Chenopodium album", "result": "5 (Level 5: growth control rate is above 85%)"}, {"measurement": "Weeding effect, activity level (growth control rate), Descurainia sophia", "setting": "Descurainia sophia", "result": "5 (Level 5: growth control rate is above 85%)"}, {"measurement": "Weeding effect, activity level (growth control rate), Amaranthus retroflexus L.", "setting": "[1]", "result": "5 (Level 5: growth control rate is above 85%)"}]}
{"smiles": "CC(=O)c1ccc(-c2nccc(C(=O)Nc3nnnn3C)c2Cl)s1", "note": "[Compound 1-191]", "values": [{"measurement": "Weeding effect, activity level (growth control rate), Abutilon theophrasti", "setting": "Abutilon theophrasti", "result": "5 (Level 5: growth control rate is above 85%)"}, {"measurement": "Weeding effect, activity level (growth control rate), Chenopodium album", "setting": "Chenopodium album", "result": "5 (Level 5: growth control rate is above 85%)"}, {"measurement": "Weeding effect, activity level (growth control rate), Descurainia sophia", "setting": "Descurainia sophia", "result": "5 (Level 5: growth control rate is above 85%)"}, {"measurement": "Weeding effect, activity level (growth control rate), Amaranthus retroflexus L.", "setting": "[1]", "result": "5 (Level 5: growth control rate is above 85%)"}]}
{"smiles": "Cn1nnnc1NC(=O)c1ccnc(-c2ccc(C#N)s2)c1Cl", "note": "[Compound 1-192]", "values": [{"measurement": "Weeding effect, activity level (growth control rate), Abutilon theophrasti", "setting": "Abutilon theophrasti", "result": "5 (Level 5: growth control rate is above 85%)"}, {"measurement": "Weeding effect, activity level (growth control rate), Chenopodium album", "setting": "Chenopodium album", "result": "5 (Level 5: growth control rate is above 85%)"}, {"measurement": "Weeding effect, activity level (growth control rate), Descurainia sophia", "setting": "Descurainia sophia", "result": "5 (Level 5: growth control rate is above 85%)"}, {"measurement": "Weeding effect, activity level (growth control rate), Amaranthus retroflexus L.", "setting": "[1]", "result": "5 (Level 5: growth control rate is above 85%)"}]}
{"smiles": "Cn1nnnc1NC(=O)c1ccnc(-c2cnoc2)c1Cl", "note": "[Compound 1-193]", "values": [{"measurement": "Weeding effect, activity level (growth control rate), Abutilon theophrasti", "setting": "Abutilon theophrasti", "result": "5 (Level 5: growth control rate is above 85%)"}, {"measurement": "Weeding effect, activity level (growth control rate), Chenopodium album", "setting": "Chenopodium album", "result": "5 (Level 5: growth control rate is above 85%)"}, {"measurement": "Weeding effect, activity level (growth control rate), Descurainia sophia", "setting": "Descurainia sophia", "result": "5 (Level 5: growth control rate is above 85%)"}, {"measurement": "Weeding effect, activity level (growth control rate), Amaranthus retroflexus L.", "setting": "[1]", "result": "5 (Level 5: growth control rate is above 85%)"}]}
{"smiles": "Cc1c(C(=O)Nc2nnnn2C)ccnc1-c1ccc(F)cc1", "note": "[Compound 1-194]", "values": [{"measurement": "Weeding effect, activity level (growth control rate), Abutilon theophrasti", "setting": "Abutilon theophrasti", "result": "5 (Level 5: growth control rate is above 85%)"}, {"measurement": "Weeding effect, activity level (growth control rate), Chenopodium album", "setting": "Chenopodium album", "result": "5 (Level 5: growth control rate is above 85%)"}, {"measurement": "Weeding effect, activity level (growth control rate), Descurainia sophia", "setting": "Descurainia sophia", "result": "5 (Level 5: growth control rate is above 85%)"}, {"measurement": "Weeding effect, activity level (growth control rate), Amaranthus retroflexus L.", "setting": "[1]", "result": "5 (Level 5: growth control rate is above 85%)"}]}
{"smiles": "Cn1nnnc1NC(=O)c1ccnc(-c2ccc(F)cc2)c1F", "note": "[Compound 1-195]", "values": [{"measurement": "Weeding effect, activity level (growth control rate), Abutilon theophrasti", "setting": "Abutilon theophrasti", "result": "5 (Level 5: growth control rate is above 85%)"}, {"measurement": "Weeding effect, activity level (growth control rate), Chenopodium album", "setting": "Chenopodium album", "result": "5 (Level 5: growth control rate is above 85%)"}, {"measurement": "Weeding effect, activity level (growth control rate), Descurainia sophia", "setting": "Descurainia sophia", "result": "5 (Level 5: growth control rate is above 85%)"}, {"measurement": "Weeding effect, activity level (growth control rate), Amaranthus retroflexus L.", "setting": "[1]", "result": "5 (Level 5: growth control rate is above 85%)"}]}
{"smiles": "Cn1nnnc1NC(=O)c1ccnc(-c2ccc(F)cc2)c1Br", "note": "[Compound 1-196]", "values": [{"measurement": "Weeding effect, activity level (growth control rate), Abutilon theophrasti", "setting": "Abutilon theophrasti", "result": "5 (Level 5: growth control rate is above 85%)"}, {"measurement": "Weeding effect, activity level (growth control rate), Chenopodium album", "setting": "Chenopodium album", "result": "5 (Level 5: growth control rate is above 85%)"}, {"measurement": "Weeding effect, activity level (growth control rate), Descurainia sophia", "setting": "Descurainia sophia", "result": "5 (Level 5: growth control rate is above 85%)"}, {"measurement": "Weeding effect, activity level (growth control rate), Amaranthus retroflexus L.", "setting": "[1]", "result": "5 (Level 5: growth control rate is above 85%)"}]}
{"smiles": "CC(C)c1c(C(=O)Nc2nnnn2C)ccnc1-c1ccc(F)cc1", "note": "[Compound 1-197]", "values": [{"measurement": "Weeding effect, activity level (growth control rate), Abutilon theophrasti", "setting": "Abutilon theophrasti", "result": "5 (Level 5: growth control rate is above 85%)"}, {"measurement": "Weeding effect, activity level (growth control rate), Chenopodium album", "setting": "Chenopodium album", "result": "5 (Level 5: growth control rate is above 85%)"}, {"measurement": "Weeding effect, activity level (growth control rate), Descurainia sophia", "setting": "Descurainia sophia", "result": "5 (Level 5: growth control rate is above 85%)"}, {"measurement": "Weeding effect, activity level (growth control rate), Amaranthus retroflexus L.", "setting": "[1]", "result": "5 (Level 5: growth control rate is above 85%)"}]}
